Experimental data reported in patent US10016427B2, “Hydrochloride salt of((1S,2S,4R)-4-{4-[(1S)-2,3-dihydro-1H-inden-1-ylamino]-7H-pyrrolo[2,3-D]pyrimidin-7-YL}-2-hydroxycyclopentyl) methyl sulfamate” (Millennium Pharmaceuticals, Inc., priority 2009, dated 2018).
Where a name gives a salt, the structure may show the parent alone.

What was measured:
[1] = Solid state storage stability (Peak Area % measured by HPLC); type: physicochemical; conditions: for Peak Area % 15 days / Peak Area % Initial / Peak Area % 6 weeks: solid state; for Peak Area % Initial: -20° C. freezer; for stability on storage: compared with the potassium salt
Description: The following table summarizes stability data obtained (Peak Area % measured by HPLC) for solid state ((1S,2S,4R)-4-{4-[(1S)-2,3-dihydro-1H-inden-1-ylamino]-7H-pyrrolo[2,3-d]pyrimidin-7-yl}-2-hydroxycyclopentyl)methyl sulfamate.

[2] = Solubility of Form 1 in water; type: physicochemical
Description: The resulting solution has a pH of about 2.33.

Row | Compound | Peak Area % 15 days ([1]; 5° C. refrigerator) | Peak Area % 15 days ([1]; 40° C./75% RH) | Peak Area % 15 days ([1]; 60° C./75% RH) | Peak Area % Initial [1] | stability on storage [1] | Peak Area % 6 weeks ([1]; 5° C. refrigerator) | Peak Area % 6 weeks ([1]; 40° C./75% RH) | Peak Area % 6 weeks ([1]; 60° C./75% RH) | solubility ([2]; pH 2.33, thermodynamic from solid, in water) | pH of the resulting solution ([2]; solution resulting from dissolution in water)
1 | NS(=O)(=O)OC[C@@H]1C[C@@H](n2ccc3c(N[C@H]4CCc5ccccc54)ncnc32)C[C@@H]1O.[K] [potassium salt (amorphous), potassium salt of ((1S,2S,4R)-4-{4-[(1S)-2,3-dihydro-1H-inden-1-ylamino]-7H-pyrrolo[2,3-d]pyrimidin-7-yl}-2-hydroxycyclopentyl)methyl sulfamate, reference compound] | 97.6% | 88.7% | 38.3% | 96.9% |  |  |  |  |  | 
2 | NS(=O)(=O)OC[C@@H]1C[C@@H](n2ccc3c(N[C@H]4CCc5ccccc54)ncnc32)C[C@@H]1O [free base (amorphous), ((1S,2S,4R)-4-{4-[(1S)-2,3-dihydro-1H-inden-1-ylamino]-7H-pyrrolo[2,3-d]pyrimidin-7-yl}-2-hydroxycyclopentyl)methyl sulfamate, reference compound] | 96.4% | 94.5% | 93.2% | 96.0% |  |  |  |  |  | 
3 | NS(=O)(=O)OC[C@@H]1C[C@@H](n2ccc3c(N[C@H]4CCc5ccccc54)ncnc32)C[C@@H]1O [HCl Salt Form 2, ((1S,2S,4R)-4-{4-[(1S)-2,3-dihydro-1H-inden-1-ylamino]-7H-pyrrolo[2,3-d]pyrimidin-7-yl}-2-hydroxycyclopentyl)methyl sulfamate hydrochloride Form 2] | 98.2% | 97.8% | 88.6% | 98.3% | increased stability on storage |  |  |  |  | 
4 | NS(=O)(=O)OC[C@@H]1C[C@@H](n2ccc3c(N[C@H]4CCc5ccccc54)ncnc32)C[C@@H]1O [HCl Salt Form 1, ((1S,2S,4R)-4-{4-[(1S)-2,3-dihydro-1H-inden-1-ylamino]-7H-pyrrolo[2,3-d]pyrimidin-7-yl}-2-hydroxycyclopentyl)methyl sulfamate hydrochloride Form 1] |  |  |  | 99.2% | increased stability on storage | 99.3% | 98.7% | 91.3% | ~7800 µg/mL | about 2.33
